Target: T1, ITK (Homo sapiens, UniProt Q08881)
T1 sequence (Q08881 1-620): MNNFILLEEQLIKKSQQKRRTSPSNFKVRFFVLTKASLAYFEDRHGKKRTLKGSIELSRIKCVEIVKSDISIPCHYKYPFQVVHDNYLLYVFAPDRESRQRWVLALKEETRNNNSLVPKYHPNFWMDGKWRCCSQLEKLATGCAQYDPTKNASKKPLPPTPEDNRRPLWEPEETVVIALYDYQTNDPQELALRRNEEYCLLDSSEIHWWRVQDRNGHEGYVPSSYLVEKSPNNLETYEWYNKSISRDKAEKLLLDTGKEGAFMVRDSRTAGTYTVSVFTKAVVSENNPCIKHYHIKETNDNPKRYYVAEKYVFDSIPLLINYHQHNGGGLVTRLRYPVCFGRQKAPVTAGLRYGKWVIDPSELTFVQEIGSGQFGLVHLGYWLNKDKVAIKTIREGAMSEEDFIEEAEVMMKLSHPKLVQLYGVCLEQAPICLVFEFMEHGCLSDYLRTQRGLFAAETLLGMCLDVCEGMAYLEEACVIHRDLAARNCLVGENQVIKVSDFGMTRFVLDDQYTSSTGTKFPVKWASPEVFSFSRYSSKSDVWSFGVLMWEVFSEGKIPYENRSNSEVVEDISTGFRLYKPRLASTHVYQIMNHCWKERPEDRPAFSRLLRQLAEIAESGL
Assay: ITK degradation HiBiT assay
Assay type: cell-based
Design: expressed in transfected cells; host or cells: Molt4 (ATCC CRL-1552), monoclonal clone 1C10, engineered to carry the HiBiT tag
Settings: 4 hrs; for Dmax: MOLT-4, C-terminal HiBiT-tagged Molt4 cells
Method in brief: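 C-terminal HiBiT-tagged Molt4 cells (clone 1C10) treated 4 h at 32° C with an 11-point, 5-fold compound dilution series (0.5% DMSO). HiBiT lytic detection with LgBiT then luminescence read; % ITK remaining versus concentration fit by four-parameter variable-slope model to give DC50 and Dmax.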

[1] = C-terminal HiBiT-tagged Molt4 cells

Row | Structure (SMILES) | Dmax [%] | DC50 [1] [nM] | HiBiT DMax (%) [1] [%]
1 | C[C@H]1CN(C(=O)c2ccc3cc(-c4n[nH]c5c4C[C@@H]4C(F)(F)[C@]4(C)C5)[nH]c3c2)CCN1CC1CCN(c2ccc(C3CCC(=O)NC3=O)cc2)CC1 (mixture of isomers) [Compound 153] | 80 | – | –
2 | CN(C(=O)CCC1CCN(c2ccc(C3CCC(=O)NC3=O)cn2)C1)c1ccc2cc(-c3n[nH]c4c3C[C@@H]3C(F)(F)[C@]3(C)C4)[nH]c2c1 (stereo partly drawn) [Compound 70, N-(2-((4aS,5aR)-5,5-difluoro-5a-methyl-1,4,4a,5,5a,6-hexahydrocyclopropa[f]indazol-3-yl)-1H-indol-6-yl)-3-(1-(5-(2,6-dioxopiperidin-3-yl)pyridin-2-yl)pyrrolidin-3-yl)-N-methylpropanamide] | 53 | – | –
3 | CC1(C)CCc2c(-c3cc4cc(F)c(C(=O)N5CCN(CC6CCN(c7ccc(C8CCC(=O)NC8=O)cc7)CC6)CC5)cc4[nH]3)n[nH]c2C1 (stereo not shown) [Compound 137, 3-(4-(4-((4-(2-(6,6-dimethyl-4,5,6,7-tetrahydro-1H-indazol-3-yl)-5-fluoro-1H-indole-6-carbonyl)piperazin-1-yl)methyl)piperidin-1-yl)phenyl)piperidine-2,6-dione] | 81 | 4.4 | –
4 | C[C@@]12Cc3[nH]nc(C(=O)Nc4cnn(C5CCN(CC6CCN(c7ccc([C@@H]8CCC(=O)NC8=O)cc7)CC6)CC5)c4)c3C[C@@H]1C2(F)F [Compound 116, (4aS,5aR)-N-(1-{1-[(1-{4-[(3S)-2,6-dioxopiperidin-3-yl]phenyl}piperidin-4-yl)methyl]piperidin-4-yl}-1H-pyrazol-4-yl)-5,5-difluoro-5a-methyl-1H,4H,4aH,5H,5aH,6H-cyclopropa[f]indazole-3-carboxamide] | – | 0.9 | 89
5 | COC[C@@]1(C)CCc2c(-c3cc4ccc(C(=O)N5CCN(CC6CCN(c7ccc(C8CCC(=O)NC8=O)cc7)CC6)CC5)cc4[nH]3)n[nH]c2C1 (mixture of isomers) [Compound 224, (3RS)-3-(4-{4-[(4-{2-[(6S)-6-(methoxymethyl)-6-methyl-1,4,5,7-tetrahydroindazol-3-yl]-1H-indole-6-carbonyl}piperazin-1-yl)methyl]piperidin-1-yl}phenyl)piperidine-2,6-dione] | 84 | 8.5 | –
6 | C[C@@]12Cc3[nH]nc(C(=O)Nc4cnn([C@H]5CCN(C[C@@H]6CCN(c7ccc(C8CCC(=O)NC8=O)cc7)C6)C[C@@H]5F)c4)c3C[C@@H]1C2(F)F (stereo partly drawn) [Compound 100, (4aS,5aR)-N-(1-((3S,4S)-1-(((3S)-1-(4-(2,6-dioxopiperidin-3-yl)phenyl)pyrrolidin-3-yl)methyl)-3-fluoropiperidin-4-yl)-1H-pyrazol-4-yl)-5,5-difluoro-5a-methyl-1,4,4a,5,5a,6-hexahydrocyclopropa[f]indazole-3-carboxamide] | 86 | 1.7 | –
7 | Cc1nc(N2CCC(CN3CCN(C(=O)c4ccc5cc(-c6n[nH]c7c6CCC(C)(C)C7)[nH]c5c4)CC3)CC2)ccc1C1CCC(=O)NC1=O (stereo not shown) [Compound 181] | 61 | – | –
8 | C[C@@]12Cc3[nH]nc(C(=O)Nc4cnn(C5CCN(CC6CCN(c7ccc(C8CCC(=O)NC8=O)cc7)CC6)CC5)c4)c3C[C@@H]1C2(F)F (stereo partly drawn) [Compound 92, (4aS,5aR)-N-(1-(1-((1-(4-(2,6-dioxopiperidin-3-yl)phenyl)piperidin-4-yl)methyl)piperidin-4-yl)-1H-pyrazol-4-yl)-5,5-difluoro-5a-methyl-1,4,4a,5,5a,6-hexahydrocyclopropa[f]indazole-3-carboxamide] | 89 | < 0.01 | –
9 | C[C@@]12Cc3[nH]nc(-c4cc5cc(F)c(C(=O)N6CCN(CC7CCN(c8ccc(C(=O)N[C@H]9CCC(=O)NC9=O)nc8)CC7)CC6)cc5[nH]4)c3C[C@@H]1C2(F)F [Compound 144] | 78 | – | –
10 | C[C@@H](C(=O)N(C)c1cc2[nH]c(-c3n[nH]c4c3CCC(C)(C)C4)cc2cc1F)N1CCN(CC2CCN(c3ccc(C4CCC(=O)NC4=O)cn3)CC2)CC1 (stereo partly shown) [Compound 188] | 85 | – | –
11 | C[C@@]12Cc3[nH]nc(-c4cc5ccc(C(=O)N6CC7CCC(C6)N7CC6CCN(c7ccc(C8CCC(=O)NC8=O)cc7)CC6)cc5[nH]4)c3C[C@@H]1C2(F)F (mixture of isomers) [Compound 154] | 76 | – | –
12 | C[C@@]12Cc3[nH]nc(C(=O)Nc4cnn(CC5CCN(C(=O)C6CCN(c7ccc(N8CCC(=O)NC8=O)cc7)CC6)CC5)c4)c3C[C@@H]1C2(F)F [Compound 172] | 75 | – | –
13 | Cn1c(=O)n(C2CCC(=O)NC2=O)c2cccc(N3CCC(CN4CC(n5cc(NC(=O)c6n[nH]c7c6C[C@@H]6C(F)(F)[C@]6(C)C7)cn5)C4)CC3)c21 (stereo partly drawn) [Compound 57, (4aS,5aR)-N-(1-(1-((1-(1-(2,6-dioxopiperidin-3-yl)-3-methyl-2-oxo-2,3-dihydro-1H-benzo[d]imidazol-4-yl)piperidin-4-yl)methyl)azetidin-3-yl)-1H-pyrazol-4-yl)-5,5-difluoro-5a-methyl-1,4,4a,5,5a,6-hexahydrocyclopropa[f]indazole-3-carboxamide] | 90 | < 0.01 | –
14 | C[C@H]1CN(C(=O)c2ccc3cc(-c4n[nH]c5c4CCC(C)(C)C5)[nH]c3c2)CCN1CC1CCN(c2ccc(C3CCC(=O)NC3=O)cc2)CC1 (mixture of isomers) [Compound 152] | 80 | – | –
15 | CC1(C)CCc2c(-c3cc4ccc(C(=O)N5CCN(CC6CCN(c7ccc8c(c7)CN(C7CCC(=O)NC7=O)C8=O)CC6)CC5)cc4[nH]3)n[nH]c2C1 (stereo not shown) [Compound 26, 3-{5-[4-({4-[2-(6,6-dimethyl-1,4,5,7-tetrahydroindazol-3-yl)-1H-indole-6-carbonyl]piperazin-1-yl}methyl)piperidin-1-yl]-1-oxo-3H-isoindol-2-yl}piperidine-2,6-dione] | 88 | < 0.01 | –
16 | CC1(C)CCc2c(-c3cc4ccc(C(=O)N5CCC(CN6CCN(c7cc(C8CCC(=O)NC8=O)ccn7)CC6)CC5)cc4[nH]3)n[nH]c2C1 (stereo not shown) [Compound 214, 3-{2-[4-({1-[2-(6,6-dimethyl-1,4,5,7-tetrahydroindazol-3-yl)-1H-indole-6-carbonyl]piperidin-4-yl}methyl)piperazin-1-yl]pyridin-4-yl}piperidine-2,6-dione] | 53 | 36 | –
17 | C[C@@]12Cc3[nH]nc(C(=O)Nc4cnn(CC5CCN(CC6CCN(C(=O)c7ccc(F)c(N8CCC(=O)NC8=O)c7)CC6)CC5)c4)c3C[C@@H]1C2(F)F [Compound 204] | 70 | – | –
18 | CC1(C)CCc2c(-c3cc4ccc(C(=O)N5CCC(CN6CCN(c7ccc(C8CCC(=O)NC8=O)cn7)CC6)CC5)cc4[nH]3)n[nH]c2C1 (stereo not shown) [Compound 59, 3-(6-(4-((1-(2-(6,6-dimethyl-4,5,6,7-tetrahydro-1H-indazol-3-yl)-1H-indole-6-carbonyl)piperidin-4-yl)methyl)piperazin-1-yl)pyridin-3-yl)piperidine-2,6-dione] | 81 | 0.05 | –
19 | C[C@@H]1CN(CC2CCN(c3ccc(C4CCC(=O)NC4=O)cn3)CC2)CCN1C(=O)c1ccc2cc(-c3n[nH]c4c3CCC(C)(C)C4)[nH]c2c1 (stereo partly drawn) [Compound 132, 3-(6-(4-(((R)-4-(2-(6,6-dimethyl-4,5,6,7-tetrahydro-1H-indazol-3-yl)-1H-indole-6-carbonyl)-3-methylpiperazin-1-yl)methyl)piperidin-1-yl)pyridin-3-yl)piperidine-2,6-dione] | 82 | 7 | –
20 | C[C@@H]1CN(C(=O)c2ccc3cc(-c4n[nH]c5c4C[C@@H]4C(F)(F)[C@]4(C)C5)[nH]c3c2)CCN1CC1CCN(c2ccc(C3CCC(=O)NC3=O)cc2F)CC1 (stereo partly shown) [Compound 161] | 85 | – | –
21 | C[C@@]12Cc3[nH]nc(C(=O)Nc4cnn([C@@H]5CCN(C[C@H]6CCN(c7ccc(C8CCC(=O)NC8=O)cc7)C6)C[C@H]5F)c4)c3C[C@@H]1C2(F)F (stereo partly drawn) [Compound 99, (4aS,5aR)-N-(1-((3R,4R)-1-(((3R)-1-(4-(2,6-dioxopiperidin-3-yl)phenyl)pyrrolidin-3-yl)methyl)-3-fluoropiperidin-4-yl)-1H-pyrazol-4-yl)-5,5-difluoro-5a-methyl-1,4,4a,5,5a,6-hexahydrocyclopropa[f]indazole-3-carboxamide] | 85 | 3.7 | –
22 | C[C@@]12Cc3[nH]nc(C(=O)Nc4cnn([C@H]5CC[C@H](CN6CCN(c7ccc(C(=O)NC8CCC(=O)NC8=O)nc7)CC6)CC5)c4)c3C[C@@H]1C2(F)F (mixture of isomers) [Compound 127, N-[(3SR)-2,6-dioxopiperidin-3-yl]-5-(4-{[(1rs,4rs)-4-{4-[(4aS,5aR)-5,5-difluoro-5a-methyl-1H,4H,4aH,5H,5aH,6H-cyclopropa[f]indazole-3-amido]-1H-pyrazol-1-yl}cyclohexyl]methyl}piperazin-1-yl)pyridine-2-carboxamide] | 69 | 19.1 | –
